In brackets after ≈: the same amount, converted by molar mass.
Tests used:
HEK293 = assay: Cytotoxicity against HEK293 cells by MTT assay; format: cell-based; details: Homo sapiens
Candida albicans = assay: Antifungal activity against Candida albicans; format: functional
Aspergillus flavus = assay: Antifungal activity against Aspergillus flavus; format: functional
[1] = Selectivity index, ratio of IC50 for cytotoxicity against human HEK293 cells to MIC for antimycobacterial activity against Mycobacterium tuberculosis H37Rv ATCC 27294; format: toxicity, cell-based; details: read-out: Selectivity Index
[2] = tested on: Mycobacterium tuberculosis; assay: Antimycobacterial activity against Mycobacterium tuberculosis H37Rv ATCC 27294 assessed as reduction in bacterial growth by microplate alamar blue assay; format: functional
Aspergillus niger = assay: Antifungal activity against Aspergillus niger; format: functional
Aspergillus fumigatus = assay: Antifungal activity against Aspergillus fumigatus; format: functional
[3] = tested on: Mycobacterium tuberculosis; assay: Antimycobacterial activity against Mycobacterium tuberculosis; format: functional
[4] = tested on: Mycobacterium tuberculosis; assay: Antimycobacterial activity against Mycobacterium tuberculosis H37Rv assessed as reduction in bacterial growth incubated for 5 days by MTT assay; format: functional; details: 120 h, time 5 day

Row | Compound | IC50 (HEK293) [µg/mL] | MIC (Candida albicans) [µg/mL] | MIC (Aspergillus flavus) [µg/mL] | selectivity ratio [1] | MIC [2] [µg/mL] | MIC (Aspergillus niger) [µg/mL] | MIC (Aspergillus fumigatus) [µg/mL] | MIC [3] [µg/mL] | MIC [4] [µg/mL]
1 | COc1ccc(-n2ncn(Cc3cn(Cc4cc5cc(Cl)ccc5nc4Cl)nn3)c2=O)cc1 | 1060 (≈ 2200 µM) | 0.2 (≈ 0.415 µM) | 0.2 (≈ 0.415 µM) | 340 | 3.12 (≈ 6.47 µM) | 0.2 (≈ 0.415 µM) | 3.12 (≈ 6.47 µM) |  | 
2 | COc1ccc(-n2ncn(Cc3cn(Cc4cc5cccc(C)c5nc4Cl)nn3)c2=O)cc1 | 586 (≈ 1270 µM) | 0.2 (≈ 0.433 µM) | 0.2 (≈ 0.433 µM) | 366 | 1.6 (≈ 3.46 µM) | 0.2 (≈ 0.433 µM) | 3.12 (≈ 6.75 µM) |  | 
3 | O=c1n(Cc2cn(Cc3cc4ccc(Cl)cc4nc3Cl)nn2)cnn1-c1ccccc1 | 869 (≈ 1920 µM) | 0.2 (≈ 0.442 µM) | 0.2 (≈ 0.442 µM) | 34.8 | 25 (≈ 55.3 µM) | 0.2 (≈ 0.442 µM) | 3.12 (≈ 6.9 µM) |  | 
4 | NC(=O)c1cnccn1 [PYRAZINAMIDE] |  |  |  |  | 6.25 (≈ 50.8 µM) |  |  |  | 
5 | O=C(N/N=C/c1cn(-c2ccc(Cl)cc2)nn1)c1ccncc1 |  |  |  |  |  |  |  | 0.62 (≈ 1.9 µM) | 
6 | COc1ccc(-n2ncn(Cc3cn(Cc4cc5cc(Br)ccc5nc4Cl)nn3)c2=O)cc1 | 333 (≈ 632 µM) | 0.2 (≈ 0.38 µM) | 0.2 (≈ 0.38 µM) | 53.2 | 6.25 (≈ 11.9 µM) | 0.2 (≈ 0.38 µM) | 3.12 (≈ 5.92 µM) |  | 
7 | COc1ccc2cc(Cn3cc(Cn4cnn(-c5ccccc5)c4=O)nn3)c(Cl)nc2c1 | 1010 (≈ 2250 µM) | 0.2 (≈ 0.447 µM) | 0.2 (≈ 0.447 µM) | 630 | 1.6 (≈ 3.57 µM) | 0.2 (≈ 0.447 µM) | 3.12 (≈ 6.97 µM) |  | 
8 | O=c1n(Cc2cn(Cc3cc4cc(Cl)ccc4nc3Cl)nn2)cnn1-c1ccccc1 | 459 (≈ 1010 µM) | 0.2 (≈ 0.442 µM) | 0.2 (≈ 0.442 µM) | 36.7 | 12.5 (≈ 27.6 µM) | 0.2 (≈ 0.442 µM) | 3.12 (≈ 6.9 µM) |  | 
9 | O=C(O)c1cn(C2CC2)c2cc(N3CCNCC3)c(F)cc2c1=O [CIPROFLOXACIN] |  |  |  |  | 3.12 (≈ 9.42 µM) |  |  |  | 
10 | O=c1n(Cc2cn(Cc3cc4ccccc4nc3Cl)nn2)cnn1-c1ccccc1 | 655 (≈ 1570 µM) | 0.2 (≈ 0.479 µM) | 0.2 (≈ 0.479 µM) | 26.2 | 25 (≈ 59.8 µM) | 0.2 (≈ 0.479 µM) | 3.12 (≈ 7.47 µM) |  | 
11 | COc1ccc(-n2ncn(Cc3cn(Cc4cc5ccc(Cl)cc5nc4Cl)nn3)c2=O)cc1 | 1460 (≈ 3040 µM) | 0.2 (≈ 0.415 µM) | 0.2 (≈ 0.415 µM) | 470 | 3.12 (≈ 6.47 µM) | 0.2 (≈ 0.415 µM) | 3.12 (≈ 6.47 µM) |  | 
12 | CCCCCCCCc1cn(CC(=O)OCC)nn1 |  |  |  |  |  |  |  |  | 0.5 (≈ 1.87 µM)
13 | O=c1n(Cc2cn(Cc3cc4cc(Br)ccc4nc3Cl)nn2)cnn1-c1ccccc1 | 1650 (≈ 3330 µM) | 0.2 (≈ 0.403 µM) | 0.2 (≈ 0.403 µM) | 66.1 | 25 (≈ 50.3 µM) | 0.2 (≈ 0.403 µM) | 3.12 (≈ 6.28 µM) |  | 
14 | COc1ccc(-n2ncn(Cc3cn(Cc4cc5cc(C)ccc5nc4Cl)nn3)c2=O)cc1 | 615 (≈ 1330 µM) | 0.2 (≈ 0.433 µM) | 0.2 (≈ 0.433 µM) | 384 | 1.6 (≈ 3.46 µM) | 0.2 (≈ 0.433 µM) | 3.12 (≈ 6.75 µM) |  | 
15 | NNC(=O)c1ccncc1 [ISONIAZID] |  |  |  |  | 1.6 (≈ 11.7 µM) |  |  |  | 
16 | Cc1cccc2cc(Cn3cc(Cn4cnn(-c5ccccc5)c4=O)nn3)c(Cl)nc12 | 729 (≈ 1690 µM) | 0.2 (≈ 0.463 µM) | 0.2 (≈ 0.463 µM) | 234 | 1.6 (≈ 3.7 µM) | 0.2 (≈ 0.463 µM) | 3.12 (≈ 7.22 µM) |  | 
17 | COc1ccc(-n2ncn(Cc3cn(Cc4cc5ccccc5nc4Cl)nn3)c2=O)cc1 | 958 (≈ 2140 µM) | 0.2 (≈ 0.447 µM) | 0.2 (≈ 0.447 µM) | 76.7 | 12.5 (≈ 27.9 µM) | 0.2 (≈ 0.447 µM) | 3.12 (≈ 6.97 µM) |  | 
18 | C[C@@H](N1CCN(c2ccc(-n3cnnn3)cc2)C1=O)[C@](O)(Cn1cncn1)c1ccc(F)cc1F |  |  |  |  |  |  | 1 (≈ 2.08 µM) |  | 
19 | OC(Cn1cncn1)(Cn1cncn1)c1ccc(F)cc1F [FLUCONAZOLE] |  | 25 (≈ 81.6 µM) | 25 (≈ 81.6 µM) |  |  | 25 (≈ 81.6 µM) |  |  | 
20 | Cc1ccc2nc(Cl)c(Cn3cc(Cn4cnn(-c5ccccc5)c4=O)nn3)cc2c1 | 478 (≈ 1110 µM) | 0.2 (≈ 0.463 µM) | 0.2 (≈ 0.463 µM) | 153 | 3.12 (≈ 7.22 µM) | 0.2 (≈ 0.463 µM) | 3.12 (≈ 7.22 µM) |  | 

From ChEMBL document CHEMBL4814024, “Microwave assisted regioselective synthesis of quinoline appended triazoles as potent anti-tubercular and antifungal agents via copper (I) catalyzed cycloaddition” (Bioorg Med Chem Lett, 2021)
